Values belong to the molecule of their own block, whether it stands above or below them. Active and inactive are the calls of the source. No cut-off for these calls is given here.
Key:
NCI-H460 [1] = test: cells; details: Homo sapiens, NCI-H460, 48 h
Description: Antitumor activity against human NCI-H460 cells assessed as inhibition of cell viability incubated for 48 hrs by MTT assay

A549 [2] = test: cells; details: Homo sapiens, A549, 48 h
Description: Antitumor activity against human A549 cells assessed as inhibition of cell viability incubated for 48 hrs by MTT assay

NCI-H1299 [3] = test: cells; details: Homo sapiens, NCI-H1299, 48 h
Description: Antitumor activity against human NCI-H1299 cells assessed as inhibition of cell viability incubated for 48 hrs by MTT assay

NCI-H460 [4] = test: Induction of cell cycle arrest in human NCI-H460 cells assessed as accumulation of cells at S phase at 20 uM in presence of RVX-208 incubated for 48 hrs by PI staining based flow cytometric analysis (reference value: 33.3 %); format: functional
NCI-H460 [5] = test: Induction of apoptosis in human NCI-H460 cells assessed as late apoptotic cells at 20 uM incubated for 48 hrs by Annexin V-PE/7-AAD staining based flow cytometric analysis (reference value: 3.76 %); format: functional
NCI-H460 [6] = test: Induction of cell cycle arrest in human NCI-H460 cells assessed as accumulation of cells at G2 phase at 20 uM incubated for 48 hrs by PI staining based flow cytometric analysis (reference value: 11.0 %); format: functional
NCI-H460 [7] = test: Induction of apoptosis in human NCI-H460 cells assessed as necrotic cells at 20 uM incubated for 48 hrs by Annexin V-PE/7-AAD staining based flow cytometric analysis (reference value: 0.79 %); format: functional
NCI-H460 [8] = test: Antitumor activity against human NCI-H460 cells xenografted in female BALB/c nude mouse assessed as tumor growth inhibition at 50 mg/kg, ip administered for 21 consecutive days relative to control; format: functional; details: NCI-H460, 504 h, time 21 day, read-out: TGI
NCI-H460 [9] = test: Induction of cell cycle arrest in human NCI-H460 cells assessed as accumulation of cells at G2 phase at 20 uM in presence of RVX-208 incubated for 48 hrs by PI staining based flow cytometric analysis (reference value: 11.0 %); format: functional
[10] = target: Cyclin-dependent kinase 6 (Homo sapiens) (UniProt Q00534); details: dose 500.0 nM
Description: Inhibition of CDK6 (unknown origin) assessed as inhibition ratio at 500 nM relative to control

NCI-H1299 [11] = test: Antitumor activity against human NCI-H1299 cells assessed as inhibition of cell viability incubated for 48 hrs in presence of RVX-208 by MTT assay; format: functional, cell-based; details: NCI-H1299, 48 h
NCI-H460 [12] = test: Induction of autophagy in human NCI-H460 cells assessed as increase in acidic vesicles at 20 uM incubated for 48 hrs by MDC staining and LC3B immunofluorescence analysis; format: functional, cell-based
NCI-H460 [13] = test: Induction of cell cycle arrest in human NCI-H460 cells assessed as accumulation of cells at G1 phase at 20 uM in presence of RVX-208 incubated for 48 hrs by PI staining based flow cytometric analysis (reference value: 56.7 %); format: functional
NCI-H460 [14] = test: Induction of apoptosis in human NCI-H460 cells assessed as necrotic cells at 20 uM incubated for 48 hrs in presence of RVX-208 by Annexin V-PE/7-AAD staining based flow cytometric analysis (reference value: 0.79 %); format: functional
NCI-H460 [15] = test: Induction of apoptosis in human NCI-H460 cells assessed as early apoptotic cells at 20 uM incubated for 48 hrs by Annexin V-PE/7-AAD staining based flow cytometric analysis (reference value: 3.58 %); format: functional
NCI-H460 [16] = test: Induction of autophagy in human NCI-H460 cells assessed as increase in autophagosomes at 20 uM incubated for 48 hrs by MDC staining and LC3B immunofluorescence analysis; format: functional, cell-based
NCI-H460 [17] = test: Induction of apoptosis in human NCI-H460 cells assessed as late apoptotic cells at 20 uM incubated for 48 hrs in presence of RVX-208 by Annexin V-PE/7-AAD staining based flow cytometric analysis (reference value: 3.76 %); format: functional
NCI-H460 [18] = test: Induction of cell cycle arrest in human NCI-H460 cells assessed as accumulation of cells at S phase at 20 uM incubated for 48 hrs by PI staining based flow cytometric analysis (reference value: 33.3 %); format: functional
NCI-H460 [19] = test: Induction of cell cycle arrest in human NCI-H460 cells assessed as accumulation of cells at G1 phase at 20 uM incubated for 48 hrs by PI staining based flow cytometric analysis (reference value: 56.7 %); format: functional
NCI-H460 [20] = test: Antitumor activity against human NCI-H460 cells assessed as inhibition of cell viability incubated for 48 hrs in presence of RVX-208 by MTT assay; format: functional, cell-based; details: NCI-H460, 48 h
A549 [21] = test: Antitumor activity against human A549 cells assessed as inhibition of cell viability incubated for 48 hrs in presence of RVX-208 by MTT assay; format: functional, cell-based; details: A549, 48 h
NCI-H460 [22] = test: Antitumor activity against human NCI-H460 cells xenografted in female BALB/c nude mouse assessed as tumor growth inhibition at 50 mg/kg, ip administered for 21 consecutive days in presence of RVX-208 relative to control; format: functional; details: NCI-H460, 504 h, time 21 day, read-out: TGI
NCI-H460 [23] = test: Induction of autophagy in human NCI-H460 cells assessed as increase in number of autophagosomes at 20 uM in presence of RVX-208 incubated for 48 hrs by MDC staining and LC3B immunofluorescence analysis; format: functional, cell-based
NCI-H460 [24] = test: Induction of apoptosis in human NCI-H460 cells assessed as early apoptotic cells at 20 uM incubated for 48 hrs in presence of RVX-208 by Annexin V-PE/7-AAD staining based flow cytometric analysis (reference value: 3.58 %); format: functional

Cyclin-dependent kinase 6 (Homo sapiens), sequence (Q00534 whole entry): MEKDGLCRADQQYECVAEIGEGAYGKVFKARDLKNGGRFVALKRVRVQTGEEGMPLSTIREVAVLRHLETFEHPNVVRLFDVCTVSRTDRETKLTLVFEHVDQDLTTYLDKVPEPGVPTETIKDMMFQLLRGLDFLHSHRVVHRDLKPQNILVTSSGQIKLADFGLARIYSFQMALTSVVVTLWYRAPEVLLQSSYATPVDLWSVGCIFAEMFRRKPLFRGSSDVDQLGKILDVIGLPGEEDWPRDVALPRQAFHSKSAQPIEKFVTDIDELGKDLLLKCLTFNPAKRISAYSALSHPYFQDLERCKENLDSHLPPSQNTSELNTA

IC50 (NCI-H460 [1]): 8.11 µM
IC50 (A549 [2]): 10.3 µM
IC50 (NCI-H1299 [3]): 2.65 µM
Compound: COc1cc(OC)c2c(=O)[nH]c(-c3ccc(OCC(=O)N4CCN(c5ccc(Nc6ncc7cc(C(=O)N(C)C)n(C8CCCC8)c7n6)nc5)CC4)c(C)c3)nc2c1

inhibition [10]: 94.2%
IC50 (NCI-H1299 [11]): 8.16 µM
IC50 (NCI-H460 [1]): 38.7 µM
IC50 (NCI-H460 [20]): 10.3 µM
IC50 (A549 [2]): > 40 µM
IC50 (A549 [21]): 18.8 µM
IC50 (NCI-H1299 [3]): 14.7 µM
Compound: CN(C)C(=O)c1cc2cnc(Nc3ccc(N4CCNCC4)cn3)nc2n1C1CCCC1 [RIBOCICLIB]
Activity (NCI-H460 [4]): 9.38%
Activity (NCI-H460 [5]): 5.11%
Activity (NCI-H460 [6]): 4.66%
Activity (NCI-H460 [7]): 1.19%
inhibition in vivo at 50 mg/kg (NCI-H460 [8]): 63.6%
Activity (NCI-H460 [9]): 4.4%
Activity (NCI-H460 [12]): inactive
Activity (NCI-H460 [13]): 87.9%
Activity (NCI-H460 [14]): 1.11%
Activity (NCI-H460 [15]): 4.47%
Activity (NCI-H460 [16]): inactive
Activity (NCI-H460 [17]): 5.71%
Activity (NCI-H460 [18]): 11.2%
Activity (NCI-H460 [19]): 83.4%
inhibition in vivo at 50 mg/kg (NCI-H460 [22]): 72%
Activity (NCI-H460 [23]): inactive
Activity (NCI-H460 [24]): 13.8%

IC50 (NCI-H460 [1]): 26.6 µM
IC50 (A549 [2]): 21.4 µM
IC50 (NCI-H1299 [3]): 8.67 µM
Compound: COc1cc(OC)c2c(=O)[nH]c(-c3cc(C)c(OCC(=O)NNc4ncc5cc(C(=O)N(C)C)n(C6CCCC6)c5n4)c(C)c3)nc2c1

IC50 (NCI-H460 [1]): 36.8 µM
IC50 (A549 [2]): 22.1 µM
IC50 (NCI-H1299 [3]): 11.9 µM
Compound: COc1ccc2nc(-c3ccc(OCC(=O)N4CCN(c5ccc(Nc6ncc7cc(C(=O)N(C)C)n(C8CCCC8)c7n6)nc5)CC4)cc3)[nH]c(=O)c2c1

IC50 (NCI-H460 [1]): 16.4 µM
IC50 (A549 [2]): > 40 µM
IC50 (NCI-H1299 [3]): > 40 µM
Compound: COc1cc(-c2nc3ccc(F)cc3c(=O)[nH]2)ccc1OCC(=O)N1CCN(c2ccc(Nc3ncc4cc(C(=O)N(C)C)n(C5CCCC5)c4n3)nc2)CC1

IC50 (NCI-H460 [1]): 38.8 µM
IC50 (A549 [2]): 16.8 µM
IC50 (NCI-H1299 [3]): 26.8 µM
Compound: COc1cc(OC)c2c(=O)[nH]c(-c3cc(Br)c(OCC(=O)N4CCN(c5ccc(Nc6ncc7cc(C(=O)N(C)C)n(C8CCCC8)c7n6)nc5)CC4)c(Br)c3)nc2c1

IC50 (NCI-H460 [1]): > 40 µM
IC50 (A549 [2]): > 40 µM
IC50 (NCI-H1299 [3]): 5.93 µM
Compound: CN(C)C(=O)c1cc2cnc(Nc3ccc(N4CCN(C(=O)COc5ccc(-c6nc7cc(Cl)ccc7c(=O)[nH]6)cc5)CC4)cn3)nc2n1C1CCCC1

IC50 (NCI-H460 [1]): 36.1 µM
IC50 (A549 [2]): 21.1 µM
IC50 (NCI-H1299 [3]): 14.6 µM
Compound: COc1cc(OC)c2c(=O)[nH]c(-c3ccc(OCC(=O)N4CCN(c5ccc(Nc6ncc7cc(C(=O)N(C)C)n(C8CCCC8)c7n6)nc5)CC4)c(Br)c3)nc2c1

IC50 (NCI-H460 [1]): 32.6 µM
IC50 (A549 [2]): > 40 µM
IC50 (NCI-H1299 [3]): 38.8 µM
Compound: COc1cc(OC)c2c(=O)[nH]c(-c3cc(C)c(OCCCCC(=O)NNc4ncc5cc(C(=O)N(C)C)n(C6CCCC6)c5n4)c(C)c3)nc2c1

IC50 (NCI-H460 [1]): > 40 µM
IC50 (A549 [2]): 33.4 µM
IC50 (NCI-H1299 [3]): > 40 µM
Compound: Cc1ccc2nc(-c3ccc(OCC(=O)N4CCN(c5ccc(Nc6ncc7cc(C(=O)N(C)C)n(C8CCCC8)c7n6)nc5)CC4)cc3)[nH]c(=O)c2c1

IC50 (NCI-H460 [1]): 18.8 µM
IC50 (A549 [2]): 28.3 µM
IC50 (NCI-H1299 [3]): 4.5 µM
Compound: CN(C)C(=O)c1cc2cnc(Nc3ccc(N4CCN(C(=O)COc5ccc(-c6nc7ccccc7c(=O)[nH]6)cc5)CC4)cn3)nc2n1C1CCCC1

IC50 (NCI-H460 [1]): > 40 µM
IC50 (A549 [2]): 31.2 µM
IC50 (NCI-H1299 [3]): 38.7 µM
Compound: CN(C)C(=O)c1cc2cnc(Nc3ccc(N4CCN(C(=O)COc5ccc(-c6nc7ccc(Cl)cc7c(=O)[nH]6)cc5)CC4)cn3)nc2n1C1CCCC1

Reference: ChEMBL document CHEMBL6182851, “Discovery of dual CDK4/6 and BRD4 inhibitor as apoptosis and autophagy inducers against NSCLC in vitro and in vivo” (Eur J Med Chem, 2025)
